Patent publication US8445690B2, “Aminothiazolones as estrogen related receptor-alpha modulators” (Janssen Pharmaceutica NV, priority 2010, dated 2013)

Target: T1, ERR1 (also known as ERR-α or ERR-1) (Homo sapiens, UniProt P11474)
T1 sequence (P11474 193-421 limits assumed): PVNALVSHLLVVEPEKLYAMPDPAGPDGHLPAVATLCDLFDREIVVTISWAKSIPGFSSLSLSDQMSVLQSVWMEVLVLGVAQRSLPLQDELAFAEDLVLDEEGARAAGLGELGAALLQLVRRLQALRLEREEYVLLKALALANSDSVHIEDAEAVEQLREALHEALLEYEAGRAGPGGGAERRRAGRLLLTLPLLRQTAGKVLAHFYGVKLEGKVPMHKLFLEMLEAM
Assay: TR-FRET assay: disruption of co-activator peptide (GST-hSRC2) binding to 6His-tagged ERR1 LBD
Assay type: biochemical
Conditions: 6 nM ERR1LBD, 6 nM GST-SRC-2 peptide, 25° C., 4-18 hours; average of 3 independent experiments
Procedure: Time-Resolved Fluorescence Resonance Energy Transfer (TR-FRET) experiments were performed to examine the functional response of ERR1 (also known as ERR-α or ERR-1) ligands. The TR-FRET assay described herein relied on the conformation of ERR1 for binding to a co-activator peptide: when a test compound binds to ERR1 and alters its conformation, it can disrupt the binding of the co-activator peptide. The components of this homogeneous secondary assay included: the ^6His-tagged-ERR1LBD, a GST-labeled-hSRC2 co-activator polypeptide and a fluorescent donor/acceptor pair from CIS bio international htrf/bioassays (Bedford, Mass.) using both an α-GST Europium Cryptate (Eu) label and an α^6His-XL665 (allophycocyanin) fluorophore.
For TR-FRET measurements, the reaction was buffered in 25 mM Tris pH 8, 2.5 mM Hepes, 20 mM KCl, 1 mM DTT, and 0.05 mg/mL BSA (-lipids). The final concentrations of reagents were 6 nM of ERR1LBD, 6 nM GST-SRC-2 peptide, 30 nM Eu cryptate, and 7.5 nM XL665. Reactions were allowed to reach equilibrium at 25° C. for 4-18 hours before collecting data on the Analyst from LJL Biosystems (Molecular Devices Sunnyvale, Calif.). As a time-resolved method, the samples were excited at […] and emission was collected for 1 ms at both 615 and 665 nm with delays of 400 and 75 μs, respectively. Dose response curves were fitted using a hyperbolic equation and the data reported is the average of 3 independent experiments.
Compounds listed in Tables II below were tested in the above assay, and they are all active modulators of ERR1.

EC50 [nM]	SMILES
11	O=C1N=C(NCc2cncnc2)S/C1=C\c1ccc2c(cnn2Cc2ccc(C(F)(F)F)cc2C(F)(F)F)c1 [Compound 30, 5-[1-(2,4-Bis-trifluoromethyl-benzyl)-1H-indazol-5-ylmethylene]-2-[(pyrimidin-5-ylmethyl)-amino]-thiazol-4-one]
22	O=C(O)CC(O)CNC1=NC(=O)/C(=C/c2ccc3c(cnn3Cc3ccc(Cl)cc3C(F)(F)F)c2)S1 (centres unmarked) [Compound 46, 4-{5-[1-(4-Chloro-2-trifluoromethyl-benzyl)-1H-indazol-5-ylmethylene]-4-oxo-4,5-dihydro-thiazol-2-ylamino}-3-hydroxy-butyric acid]
12	O=C1N=C(NCCn2ccnc2)S/C1=C\c1ccc2c(cnn2Cc2ccc(Cl)cc2C(F)(F)F)c1 [Compound 24, 5-[1-(4-Chloro-2-trifluoromethyl-benzyl)-1H-indazol-5-ylmethylene]-2-(2-imidazol-1-yl-ethylamino)-thiazol-4-one]
2.5	O=C1CN(CCNC2=NC(=O)/C(=C/c3ccc4c(cnn4Cc4ccc(C(F)(F)F)cc4C(F)(F)F)c3)S2)CCN1 [Compound 16, 4-(2-{5-[1-(2,4-Bis-trifluoromethyl-benzyl)-1H-indazol-5-ylmethylene]-4-oxo-4,5-dihydro-thiazol-2-ylamino}-ethyl)-piperazin-2-one]
8.9	COc1ccc(Cn2ncc3cc(/C=C4\SC(NC[C@H](O)CO)=NC4=O)ccc32)c(C(F)(F)F)c1 [Compound 9, 2-(2S,3-Dihydroxy-propylamino)-5-[1-(4-methoxy-2-trifluoromethyl-benzyl)-1H-indazol-5-ylmethylene]-thiazol-4-one]
5	CN1CCN(CCNC2=NC(=O)/C(=C/c3ccc4c(c3)c(I)nn4Cc3ccc(C(F)(F)F)cc3C(F)(F)F)S2)CC1 [Compound 48, 5-({1-[2,4-Bis(trifluoromethyl)benzyl]-3-iodo-1H-indazol-5-yl}methylidene)-2-{[2-(4-methylpiperazin-1-yl)ethyl]amino}-1,3-thiazol-4(5H)-one]
5.3	COc1ccc(Cn2ncc3cc(/C=C4\SC(NC5(C(=O)O)CC5)=NC4=O)ccc32)c(C(F)(F)F)c1 [Compound 13, 1-{5-[1-(4-Methoxy-2-trifluoromethyl-benzyl)-1H-indazol-5-ylmethylene]-4-oxo-4,5-dihydro-thiazol-2-ylamino}-cyclopropanecarboxylic acid]
73	O=C1N=C(NCCOCCO)S/C1=C\c1ccc2c(cnn2Cc2ccc(Cl)cc2Cl)c1 [Compound 8, 5-[1-(2,4-Dichloro-benzyl)-1H-indazol-5-ylmethylene]-2-[2-(2-hydroxy-ethoxy)-ethylamino]-thiazol-4-one]
4.9	COc1ccc(Cn2ncc3cc(/C=C4\SC(NC[C@@H](O)CO)=NC4=O)ccc32)c(C(F)(F)F)c1 [Compound 10, 2-(2R,3-Dihydroxy-propylamino)-5-[1-(4-methoxy-2-trifluoromethyl-benzyl)-1H-indazol-5-ylmethylene]-thiazol-4-one]
15	O=C1N=C(NCCN2CCOCC2)S/C1=C\c1ccc2c(cnn2Cc2ccc(C(F)(F)F)cc2C(F)(F)F)c1 [Compound 12, 5-[1-(2,4-Bis-trifluoromethyl-benzyl)-1H-indazol-5-ylmethylene]-2-(2-morpholin-4-yl-ethylamino)-thiazol-4-one]
19.4	O=C1N=C(Nc2cccnc2)S/C1=C\c1ccc2c(cnn2Cc2ccc(Cl)cc2C(F)(F)F)c1 [Compound 20, 5-[1-(4-Chloro-2-trifluoromethyl-benzyl)-1H-indazol-5-ylmethylene]-2-(pyridin-3-ylamino)-thiazol-4-one]
4.8	Cc1nnc(CNC2=NC(=O)/C(=C/c3ccc4c(cnn4Cc4ccc(C(F)(F)F)cc4C(F)(F)F)c3)S2)[nH]1 [Compound 36, 5-[1-(2,4-Bis-trifluoromethyl-benzyl)-1H-indazol-5-ylmethylene]-2-[(5-methyl-4H-[1,2,4]triazol-3-ylmethyl)-amino]-thiazol-4-one]
11	O=C1CN(CCNC2=NC(=O)/C(=C/c3ccc4c(cnn4Cc4ccc(Cl)cc4C(F)(F)F)c3)S2)CCN1 [Compound 19, 4-(2-{5-[1-(4-Chloro-2-trifluoromethyl-benzyl)-1H-indazol-5-ylmethylene]-4-oxo-4,5-dihydro-thiazol-2-ylamino}-ethyl)-piperazin-2-one]
260	O=C1N=C(NCCC2CCOCC2)S/C1=C\c1ccc2c(cnn2Cc2ccc(C(F)(F)F)cc2C(F)(F)F)c1 [Compound 33, 5-[1-(2,4-Bis-trifluoromethyl-benzyl)-1H-indazol-5-ylmethylene]-2-[2-(tetrahydro-pyran-4-yl)-ethylamino]-thiazol-4-one]
6.4	CN(C)CCCNC1=NC(=O)/C(=C/c2ccc3c(cnn3Cc3ccc(Cl)cc3C(F)(F)F)c2)S1 [Compound 3, 5-[1-(4-Chloro-2-trifluoromethyl-benzyl)-1H-indazol-5-ylmethylene]-2-(3-dimethylamino-propylamino)-thiazol-4-one]
19	O=C1N=C(NCc2c[nH]nn2)S/C1=C\c1ccc2c(cnn2Cc2ccc(C(F)(F)F)cc2C(F)(F)F)c1 [Compound 43, 5-[1-(2,4-Bis-trifluoromethyl-benzyl)-1H-indazol-5-ylmethylene]-2-[(1H-[1,2,3]triazol-4-ylmethyl)-amino]-thiazol-4-one]
3	COc1ccc(Cn2ncc3cc(/C=C4\SC(NCC(F)F)=NC4=O)ccc32)c(C(F)(F)F)c1 [Compound 11, 2-(2,2-Difluoro-ethylamino)-5-[1-(4-methoxy-2-trifluoromethyl-benzyl)-1H-indazol-5-ylmethylene]-thiazol-4-one]
23.1	O=C(O)CNC1=NC(=O)/C(=C/c2ccc3c(cnn3Cc3ccc(Cl)cc3C(F)(F)F)c2)S1 [Compound 4, {5-[1-(4-Chloro-2-trifluoromethyl-benzyl)-1H-indazol-5-ylmethylene]-4-oxo-4,5-dihydro-thiazol-2-ylamino}-acetic acid]
1.8	COc1ccc(Cn2ncc3cc(/C=C4\SC(NCCn5cncn5)=NC4=O)ccc32)c(C(F)(F)F)c1 [Compound 18, 5-[1-(4-Methoxy-2-trifluoromethyl-benzyl)-1H-indazol-5-ylmethylene]-2-(2-[1,2,4]triazol-1-yl-ethylamino)-thiazol-4-one]
3.9	O=C1N=C(NCc2nn[nH]n2)S/C1=C\c1ccc2c(cnn2Cc2ccc(C(F)(F)F)cc2C(F)(F)F)c1 [Compound 15, 5-[1-(2,4-Bis-trifluoromethyl-benzyl)-1H-indazol-5-ylmethylene]-2-[(2H-tetrazol-5-ylmethyl)-amino]-thiazol-4-one]
15	O=C1N=C(N[C@H]2CC[C@@H](C(=O)O)CC2)S/C1=C\c1ccc2c(cnn2Cc2ccc(Cl)cc2C(F)(F)F)c1 [Compound 44, (S,S)-4-{5-[1-(4-Chloro-2-trifluoromethyl-benzyl)-1H-indazol-5-ylmethylene]-4-oxo-4,5-dihydro-thiazol-2-ylamino}-cyclohexanecarboxylic acid]
37	NS(=O)(=O)CCNC1=NC(=O)/C(=C/c2ccc3c(cnn3Cc3ccc(C(F)(F)F)cc3C(F)(F)F)c2)S1 [Compound 31, 2-{5-[1-(2,4-Bis-trifluoromethyl-benzyl)-1H-indazol-5-ylmethylene]-4-oxo-4,5-dihydro-thiazol-2-ylamino}-ethanesulfonic acid amide]
4.4	COc1ccc(Cn2ncc3cc(/C=C4\SC(NCCCN5CCCC5=O)=NC4=O)ccc32)c(C(F)(F)F)c1 [Compound 7, 5-[1-(4-Methoxy-2-trifluoromethyl-benzyl)-1H-indazol-5-ylmethylene]-2-[3-(2-oxo-pyrrolidin-1-yl)-propylamino]-thiazol-4-one]

SMILES	EC50 [nM]
O=C1N=C(N[C@H]2CN3CCC2CC3)S/C1=C\c1ccc2c(cnn2Cc2ccc(Cl)cc2C(F)(F)F)c1 [Compound 28, 2-(1-Aza-bicyclo[2.2.2]oct-3(R)-ylamino)-5-[1-(4-chloro-2-trifluoromethyl-benzyl)-1H-indazol-5-ylmethylene]-thiazol-4-one]	6
O=C1N=C(N[C@@H]2CN3CCC2CC3)S/C1=C\c1ccc2c(cnn2Cc2ccc(C(F)(F)F)cc2C(F)(F)F)c1 [Compound 29, 2-(1-Aza-bicyclo[2.2.2]oct-3(S)-ylamino)-5-[1-(2,4-bis-trifluoromethyl-benzyl)-1H-indazol-5-ylmethylene]-thiazol-4-one]	39
O=C1N=C(N[C@@H]2CN3CCC2CC3)S/C1=C\c1ccc2c(cnn2Cc2ccc(Cl)cc2C(F)(F)F)c1 [Compound 27, 2-(1-Aza-bicyclo[2.2.2]oct-3(S)-ylamino)-5-[1-(4-chloro-2-trifluoromethyl-benzyl)-1H-indazol-5-ylmethylene]-thiazol-4-one]	11
